Columns and labels:
[1] = known log D values from literature; sources a) MEDChem01, MEDChem03, b) calculated from logP and pKa, c) Winiwarter et al. 1998; cited from earlier work
[2] = DIFI-log D: octanol-impregnated PVDF membrane (DIFI-tubes) / buffer distribution, UV readout; conditions: for logD at 2 h: pH 7.4
Experimental: All compounds of the validation set were dissolved in dimethylsulfoxide at a concentration of 10 mM (DMSO-stock).
The experiment started with the accurate coating of 0,45 μm hydrophobic PVDF membranes (Immobilon-P PVDF (Millipore) and PVDF-Plus (Whatman, Headquater: 27 Great West Road, Brentford, Middlesex, TW8 9BW, UK), which were fixed on the bottom of the DI FI-tub es.
Each membrane is impregnated with exactly 1 μl octanol and 1μl DMSO-stock.
After a short incubation of 10 min the tubes with the coated membranes were connected to a 96-deepwell plate which had been prefilled with exactly 1600 μl of the selected buffer solution (50 mM TAPSO (FLUKA, BioChemika, ArtNo.93357), pH 7.4).
The plate was then sealed and shaken for two hours. During this time the substance was distributed between the membrane, the octanol and the buffer solution accordingly.
After the distribution equilibrium was reached (after 2 h) the tubes were carefully disassembled from the top of the deepwell plate in order to analyze the octanol phase which still stucks to the membrane.
Therefore, the remaining compound in the octanol phase was washed out with additional octanol as eluent. The concentration of the substance in the eluent was then determined by UV spectroscopy at absorption wavelengths between 250 and 450 nm.
In order to know the exact sample concentration before incubation with buffer a reference plate was generated under the same conditions as the described sample plate above. The reference plate was directly treated with the eluent and the resulted reference concentration in the octanol phase was measured by UV spectroscopy.
The lipophilicity value log D may be calculated from the analyzed sample concentration after incubation with buffer (Co) and the reference concentration before distribution (Cref).
Due to the fact, that all UV measurements were carried out under the same conditions, the concentration term were replaced by UV-absorption values (Abs) at the same wavelength.
In this equation, Vw is the volume of the aqueous phase was divided by the volume of the octanol phase Vo.
For each compounds three determinations were performed according to the described method above. The preparation of the reference and sample plate was performed manually.

Compound | Lit. log D [1] | logD at 2 h [2] | DIFI-log D ([2]; 1 μl octanol on 0,45 μm PVDF membrane / 1600 μl 50 mM TAPSO pH 7.4, shaken 2 h, UV 250-450 nm, three determinations)
CN(C)CC/C=C1/c2ccccc2Sc2ccc(Cl)cc21 [Chlorprothixene] | 4.19 | 4.24 | –
C[C@]12CC[C@H]3[C@@H](CCC4=CC(=O)CC[C@@]43C)[C@@H]1CC[C@@H]2O [Testosterone] | – | 3.33 | –
Clc1ccc(C(c2ccccc2Cl)C(Cl)Cl)cc1 (centres unmarked) [Mitotane] | 4.87 | 4.78 | –
Clc1ccccc1C(c1ccccc1)(c1ccccc1)n1ccnc1 [Clotrimazole] | 4.99 | 4.91 | –
C[C@@H]1C[C@H]2[C@@H]3CCC4=CC(=O)C=C[C@]4(C)[C@@]3(F)[C@@H](O)C[C@]2(C)[C@@]1(O)C(=O)CO [Dexamethasone] | – | – | 1.83
COCCOC(=O)C1=C(C)NC(C)=C(C(=O)OC(C)C)C1c1cccc([N+](=O)[O-])c1 (centres unmarked) [Nimodipine] | 3.73 | 3.61 | –
COc1ccc(CCN2CCC(Nc3nc4ccccc4n3Cc3ccc(F)cc3)CC2)cc1 [Astemizole] | 4.10 | 4.12 | –
CCOC(=O)C1=C(C)NC(C)=C(C(=O)OC)C1c1cccc(Cl)c1Cl (centres unmarked) [Felodipine] | – | 4.84 | –
COc1ccc([C@@H]2Sc3ccccc3N(CCN(C)C)C(=O)[C@@H]2OC(C)=O)cc1 [Diltiazem] | 2.32 | 2.33 | –
COc1ccccc1OCCNCC(O)COc1cccc2[nH]c3ccccc3c12 (centres unmarked) [Carvedilol] | 3.37 | 3.38 | –

Source: US7527975B2, “Determination of high lipophilicity values” (Hoffmann-La Roche Inc., priority 2005, dated 2009)
